The text below walks through data of ChEMBL document CHEMBL1134688, “Synthesis, biological evaluation, and pharmacophore generation of new pyridazinone derivatives with affinity toward alpha(1)- and alpha(2)-adrenoceptors” (J Med Chem, 2001).

For test [1], the target named is Adrenergic receptor alpha-2 (Rattus norvegicus) (UniProt P22086+P19328+P22909). Put plainly: Ratio of binding affinity towards Alpha-2 and alpha-1 adrenergic receptor. The format is protein assay.
In test [2] the target is T1, Adrenergic receptor alpha-1 (Rattus norvegicus, UniProt P15823+P23944+P43140).
T1 sequence (P15823 whole entry): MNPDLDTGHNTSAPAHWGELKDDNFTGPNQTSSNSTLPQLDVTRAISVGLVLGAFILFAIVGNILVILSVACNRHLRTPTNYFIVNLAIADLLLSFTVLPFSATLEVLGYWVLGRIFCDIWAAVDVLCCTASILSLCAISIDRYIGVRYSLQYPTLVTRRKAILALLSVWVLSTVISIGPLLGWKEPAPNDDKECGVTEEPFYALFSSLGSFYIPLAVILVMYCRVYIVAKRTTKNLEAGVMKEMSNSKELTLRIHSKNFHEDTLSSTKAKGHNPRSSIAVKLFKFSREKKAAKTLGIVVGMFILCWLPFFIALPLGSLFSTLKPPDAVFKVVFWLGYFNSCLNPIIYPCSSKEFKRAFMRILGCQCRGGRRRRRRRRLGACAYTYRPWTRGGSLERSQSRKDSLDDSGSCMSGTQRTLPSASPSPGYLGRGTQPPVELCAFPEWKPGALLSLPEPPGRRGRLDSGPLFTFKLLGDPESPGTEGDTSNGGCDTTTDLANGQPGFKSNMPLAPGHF
T1 sequence (P23944 whole entry): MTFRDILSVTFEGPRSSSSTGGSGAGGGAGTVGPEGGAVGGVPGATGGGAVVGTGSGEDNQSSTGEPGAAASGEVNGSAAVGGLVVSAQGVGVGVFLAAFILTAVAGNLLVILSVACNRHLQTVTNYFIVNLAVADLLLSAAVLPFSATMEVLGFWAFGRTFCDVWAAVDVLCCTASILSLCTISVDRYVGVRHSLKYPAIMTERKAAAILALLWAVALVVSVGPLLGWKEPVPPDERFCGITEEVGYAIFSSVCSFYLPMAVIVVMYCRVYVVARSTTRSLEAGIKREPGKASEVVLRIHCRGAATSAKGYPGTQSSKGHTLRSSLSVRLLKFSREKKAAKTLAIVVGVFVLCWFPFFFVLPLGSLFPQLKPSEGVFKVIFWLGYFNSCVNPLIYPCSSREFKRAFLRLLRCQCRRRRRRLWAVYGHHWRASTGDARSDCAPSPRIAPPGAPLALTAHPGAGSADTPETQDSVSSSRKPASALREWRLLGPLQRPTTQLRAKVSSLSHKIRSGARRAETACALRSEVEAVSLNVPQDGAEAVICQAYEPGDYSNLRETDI
T1 sequence (P43140 whole entry): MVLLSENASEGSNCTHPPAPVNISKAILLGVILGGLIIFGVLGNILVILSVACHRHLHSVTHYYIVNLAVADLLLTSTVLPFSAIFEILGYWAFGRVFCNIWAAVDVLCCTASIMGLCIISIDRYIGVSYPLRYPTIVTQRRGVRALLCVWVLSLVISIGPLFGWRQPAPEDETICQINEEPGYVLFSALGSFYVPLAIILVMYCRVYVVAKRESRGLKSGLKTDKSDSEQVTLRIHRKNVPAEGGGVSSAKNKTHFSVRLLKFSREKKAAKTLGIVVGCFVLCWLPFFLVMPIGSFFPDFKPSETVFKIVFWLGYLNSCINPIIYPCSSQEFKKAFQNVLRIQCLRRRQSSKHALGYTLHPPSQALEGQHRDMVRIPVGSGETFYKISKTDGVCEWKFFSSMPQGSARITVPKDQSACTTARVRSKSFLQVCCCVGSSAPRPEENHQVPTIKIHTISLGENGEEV
Nature of the test: Binding affinity towards alpha-1 adrenergic receptor in rat cortex membrane using [3H]-prazosin radioligand. The format is cell membranes.

Test [3] concerns the target T2, Adrenergic receptor alpha-2 (Rattus norvegicus, UniProt P22086+P19328+P22909).
T2 sequence (P22086 whole entry): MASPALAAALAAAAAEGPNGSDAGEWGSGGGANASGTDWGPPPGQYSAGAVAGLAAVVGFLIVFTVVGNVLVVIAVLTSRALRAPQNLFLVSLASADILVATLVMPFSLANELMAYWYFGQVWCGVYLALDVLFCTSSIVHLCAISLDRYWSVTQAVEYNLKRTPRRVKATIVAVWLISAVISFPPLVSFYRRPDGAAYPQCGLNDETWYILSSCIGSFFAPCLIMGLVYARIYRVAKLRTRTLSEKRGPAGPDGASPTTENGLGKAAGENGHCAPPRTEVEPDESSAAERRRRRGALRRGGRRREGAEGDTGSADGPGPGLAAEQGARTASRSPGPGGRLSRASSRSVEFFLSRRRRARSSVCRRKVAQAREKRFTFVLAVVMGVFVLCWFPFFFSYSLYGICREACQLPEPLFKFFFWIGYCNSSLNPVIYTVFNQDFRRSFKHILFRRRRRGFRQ
T2 sequence (P19328 whole entry): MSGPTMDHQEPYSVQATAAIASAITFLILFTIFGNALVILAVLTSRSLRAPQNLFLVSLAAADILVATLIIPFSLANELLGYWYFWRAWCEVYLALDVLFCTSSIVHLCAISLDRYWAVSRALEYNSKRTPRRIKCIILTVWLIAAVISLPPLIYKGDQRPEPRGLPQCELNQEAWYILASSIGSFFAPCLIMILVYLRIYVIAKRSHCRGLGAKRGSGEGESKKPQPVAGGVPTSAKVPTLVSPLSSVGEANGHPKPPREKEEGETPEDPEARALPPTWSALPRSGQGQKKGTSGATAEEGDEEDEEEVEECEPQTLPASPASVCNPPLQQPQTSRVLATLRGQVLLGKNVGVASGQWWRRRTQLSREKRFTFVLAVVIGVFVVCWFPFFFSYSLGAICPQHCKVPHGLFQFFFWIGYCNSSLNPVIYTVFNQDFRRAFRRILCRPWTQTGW
T2 sequence (P22909 whole entry): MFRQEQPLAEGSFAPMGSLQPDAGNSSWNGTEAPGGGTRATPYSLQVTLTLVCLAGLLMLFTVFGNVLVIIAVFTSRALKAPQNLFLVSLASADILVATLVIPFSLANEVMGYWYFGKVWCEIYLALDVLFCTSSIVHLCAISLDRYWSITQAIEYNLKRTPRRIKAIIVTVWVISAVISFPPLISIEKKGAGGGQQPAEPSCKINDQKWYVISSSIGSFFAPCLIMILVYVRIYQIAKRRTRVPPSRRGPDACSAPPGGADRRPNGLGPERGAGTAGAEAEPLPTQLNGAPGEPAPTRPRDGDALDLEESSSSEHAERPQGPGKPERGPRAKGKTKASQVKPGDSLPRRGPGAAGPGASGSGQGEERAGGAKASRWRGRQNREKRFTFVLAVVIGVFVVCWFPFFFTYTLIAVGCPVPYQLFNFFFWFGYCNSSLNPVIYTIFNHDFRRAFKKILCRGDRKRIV
Nature of the test: Binding affinity towards alpha-2 adrenergic receptor in rat cortex membrane using [3H]rauwolscine radioligand. The format is cell membranes.

As for `COc1ccccc1OCCN1CCN(c2cnn(CCCCCN3CCN(c4ccccc4OC)CC3)c(=O)c2Cl)CC1`, in test [1], the Ratio stood at 3.8. Also, the Ki is recorded as 3.9 nM in test [2] and 15 nM in test [3].

For the molecule `COc1ccccc1N1CCN(CCCn2ncc(N3CCN(C(=O)c4ccco4)CC3)c(Cl)c2=O)CC1`, the Ratio in test [1] stood at 33.3. Moreover, the Ki in test [2] was found to be 20.4 nM; in test [3], 680 nM.

As for `COc1ccccc1OCCN1CCN(c2ccc(=O)n(CCCN3CCN(c4ccccc4Cl)CC3)n2)CC1`, the Ratio in test [1] was 46.5. Further, the Ki amounted to 6.8 nM in test [2] and 316 nM in test [3].

Turning to `COc1ccccc1OCCN1CCN(c2cnn(CCCCCCCN3CCN(c4ccccc4Cl)CC3)c(=O)c2Cl)CC1`, the Ratio in test [1] is 2.7. Moreover, the Ki stood at 2.7 nM in test [2] and 7.4 nM in test [3].

`O=C(c1ccco1)N1CCN(c2ccc(=O)n(CCCN3CCN(c4ccccc4Cl)CC3)n2)CC1`: in test [1], the Ratio came to 20.3. Moreover, the Ki worked out at 12.8 nM in test [2] and 260 nM in test [3].

On to `COc1ccc(Cl)cc1N1CCN(CCn2nc(-c3ccccc3)c3c(C)onc3c2=O)CC1`, for which, in test [2], the Ki amounted to 15.6 nM.

As to `COc1ccccc1N1CCN(CCCCCCn2ncc(N3CCN(C(=O)c4ccco4)CC3)c(Cl)c2=O)CC1`, the Ratio in test [1] worked out at 6. For the same molecule, the Ki in test [2] came out at 4.1 nM; in test [3], 24.5 nM.

As to `COc1ccccc1OCCN1CCN(c2cnn(CCCCCCCN3CCN(c4ccccc4OC)CC3)c(=O)c2Cl)CC1`, in test [1], the Ratio is 3.2. Further, the Ki in test [2] is on record as 1.4 nM; in test [3] it was 4.6 nM.

With `COc1ccccc1N1CCN(CCCCCCCn2nc(N3CCN(C(=O)c4ccco4)CC3)ccc2=O)CC1`, the Ratio in test [1] amounted to 1.7. For the same molecule, the Ki in test [2] was 54.7 nM; in test [3] it was 96 nM.

Consider `COc1ccccc1OCCN1CCN(c2ccc(=O)n(CCCCN3CCN(c4ccccc4Cl)CC3)n2)CC1`, for which the Ratio in test [1] was determined as 86.7. Besides, the Ki in test [2] was found to be 0.8 nM; in test [3] it was 69.4 nM.

Regarding `COc1ccccc1OCCN1CCN(c2cnn(CCCN3CCN(c4ccccc4Cl)CC3)c(=O)c2Cl)CC1`, in test [1], the Ratio worked out at 7.8. Also, the values for the Ki in test [2] and in test [3] were 27.8 nM and 219 nM, respectively.

In the case of `COc1ccccc1N1CCN(Cn2nc(-c3ccccc3)c(C(C)=O)c(N)c2=O)CC1`, in test [2], the Ki stood at 2395 nM.

Turning to `COc1ccccc1OCCN1CCN(c2cnn(CCCCCCCCN3CCN(c4ccccc4OC)CC3)c(=O)c2Cl)CC1`, the Ratio in test [1] came out at 6.5. The Ki in test [2] came to 3.5 nM; in test [3], 22.7 nM.

As for `O=C(c1ccco1)N1CCN(c2cnn(CCCCCCCN3CCN(c4ccccc4Cl)CC3)c(=O)c2Cl)CC1`, in test [1], the Ratio came out at 3.1. Moreover, the Ki was 11.5 nM in test [2] and 36.2 nM in test [3].

In the case of `O=C(c1ccco1)N1CCN(c2ccc(=O)n(CCCCCN3CCN(c4ccccc4Cl)CC3)n2)CC1`, in test [1], the Ratio worked out at 7.9. For the same molecule, the inhibitory constant (Ki) was 13.3 nM in test [2] and 105 nM in test [3].

Regarding `O=C(c1ccco1)N1CCN(c2ccc(=O)n(CCN3CCN(c4ccccc4Cl)CC3)n2)CC1`, in test [1], the Ratio came to 1.5. The Ki in test [2] came out at 34 nM; in test [3], 52.6 nM.

For the molecule `COc1ccccc1N1CCN(CCn2ncc(N3CCN(C(=O)c4ccco4)CC3)c(Cl)c2=O)CC1`, the Ratio in test [1] stood at 13.3. The figures for the Ki in test [2] and in test [3] were 33 nM and 440 nM, respectively.

As for `COc1ccccc1OCCN1CCN(c2cnn(CCN3CCN(c4ccccc4Cl)CC3)c(=O)c2Cl)CC1`, the Ratio in test [1] came out at 5. For the same molecule, the Ki was determined as 58.8 nM in test [2] and 292.3 nM in test [3].

On to `COc1ccccc1N1CCN(CCCCn2ncc(N3CCN(C(=O)c4ccco4)CC3)c(Cl)c2=O)CC1`, for which the Ratio in test [1] stood at 26. Besides, the results for the Ki in test [2] and in test [3] were 33.5 nM and 870 nM, respectively.

Take `COc1ccccc1N1CCN(Cn2nc(-c3ccccc3)c3c(C)onc3c2=O)CC1`: in test [2], the Ki worked out at 2308 nM.

With `O=C(c1ccco1)N1CCN(c2cnn(CCCCCN3CCN(c4ccccc4Cl)CC3)c(=O)c2Cl)CC1`, the Ratio in test [1] turned out to be 5. Further, the Ki in test [2] amounted to 3.6 nM; in test [3], 18 nM.

Consider `COc1ccccc1OCCN1CCN(c2ccc(=O)n(CCCN3CCN(c4ccccc4OC)CC3)n2)CC1`, for which, in test [1], the Ratio amounted to 34.8. Moreover, the figures for the Ki in test [2] and in test [3] were 7.3 nM and 254 nM, respectively.

On to `COc1ccccc1OCCN1CCN(c2cnn(CCCCN3CCN(c4ccccc4OC)CC3)c(=O)c2Cl)CC1`, for which the Ratio in test [1] turned out to be 53. Besides, the Ki in test [2] is 4.3 nM; in test [3], 230 nM.

As to `COc1ccccc1N1CCN(CCCCCCCn2ncc(N3CCN(C(=O)c4ccco4)CC3)c(Cl)c2=O)CC1`, in test [1], the Ratio came out at 274. For the same molecule, the Ki in test [2] is listed as 1.9 nM; in test [3] it was 520 nM.

In test [2], `COc1ccccc1N1CCN(CC(=O)c2c(-c3ccccc3)nn(C)c(=O)c2N)CC1` came in with a Ki of 516 nM.

With `COc1ccccc1N1CCN(CCn2nc(N3CCN(C(=O)c4ccco4)CC3)ccc2=O)CC1`, the Ki in test [2] is recorded as 94.5 nM.

In test [2], `COc1ccccc1N1CCN(CCn2nc(-c3ccccc3)c3c(C)onc3c2=O)CC1` showed a Ki of 147 nM. Against the preceding molecule, the Ki is about 1.6-fold higher.

As for `COc1ccc(Cl)cc1N1CCN(CCn2nc(-c3ccccc3)c(C(C)=O)c(N)c2=O)CC1`, in test [2], the Ki was determined as 42.7 nM.

For `COc1ccccc1N1CCN(CCCn2nc(-c3ccccc3)c(C(C)=O)c(N)c2=O)CC1`, the Ki in test [2] was 46.7 nM.

Consider `COc1ccc(Cl)cc1N1CCN(CCCn2nc(-c3ccccc3)c3c(C)onc3c2=O)CC1`, for which the Ki in test [2] amounted to 7.9 nM. Compared with the last molecule, the Ki is about 5.9-fold lower.
